ChEMBL document CHEMBL5136961, “Deglycase-activity oriented screening to identify DJ-1 inhibitors” (RSC Med Chem, 2021)

Target: T1, Parkinson disease protein 7 (Homo sapiens, UniProt Q99497)
T1 sequence (Q99497 whole entry): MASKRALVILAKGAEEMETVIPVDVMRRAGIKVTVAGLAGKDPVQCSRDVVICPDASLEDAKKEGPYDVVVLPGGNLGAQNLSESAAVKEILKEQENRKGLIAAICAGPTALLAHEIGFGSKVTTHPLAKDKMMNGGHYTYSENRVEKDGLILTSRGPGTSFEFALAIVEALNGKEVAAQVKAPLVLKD
Experiment: Inhibition of pET3a-His-tagged DJ1 (unknown origin) expressed in Escherichia coli BL21 assessed as decrease in esterase activity using DiFMUAc as substrate

| Compound | IC50 [nM] |
| --- | --- |
| Cc1ccc(CN2C(=O)C(=O)c3cc(Br)cc(Br)c32)cc1 | 676 |
| O=C1C(=O)N(CCc2ccccc2)c2ccccc21 | 701 |
| COc1ccc(CN2C(=O)C(=O)c3cc(Br)cc(Br)c32)cc1 | 267 |
| O=C1C(=O)N(CCc2ccccc2)c2c(Br)cc(Br)cc21 | 62.6 |
| COc1ccc2c(c1)C(=O)C(=O)N2CCc1ccccc1 | 2930 |
| O=C1C(=O)N(CCc2ccccc2)c2ccc(F)cc21 | 118 |
| CCN1C(=O)C(=O)c2cc(F)ccc21 | 118 |
| O=C1C(=O)N(CC2(c3ccccc3)CC2)c2ccc(F)cc21 | 356 |
| O=C1/C(=C/Cl)c2cc(F)ccc2N1CCc1ccccc1 | 15000 |
| O=C1C(Cl)c2cc(F)ccc2N1CCc1ccccc1 (stereo not drawn) | 85 |
| O=C1N(CCc2ccccc2)c2ccc(F)cc2C1(Cl)Cl | 1700 |
| CC(C)(C)CCN1C(=O)C(=O)c2cc(F)ccc21 | 851 |
| O=C1C(F)c2cc(F)ccc2N1CCc1ccccc1 (stereo not drawn) | 700 |
| O=C(O)Cc1ccc2c(c1)N(CCc1ccccc1)C(=O)C2=O | 2350 |
| COc1cc(F)cc2c1N(CCc1ccccc1)C(=O)C2=O | 54.6 |
| O=C1C=C(CCc2ccccc2)c2ccccc2C1=O | 180 |
| O=C(O)c1ccc2c(c1)C(=O)C(=O)N2CCc1ccccc1 | 9790 |
| C#CCOc1cc2ccccc2cc1C(=O)NC1=CC(=O)C2OC2C1O (stereo not drawn) | 510 |
